From US5053425A, “Novel anti-fungal compounds” (Merck & Co., Inc., priority 1990, dated 1991)
In brackets after ≈: the same amount, converted by molar mass.

What was measured:
Type in all cases: cell-based
A. fumigatus MF4839 = assay: MIC, inhibitor dilution assay in microtiter format, A. fumigatus MF4839; settings: Aspergillus fumigatus; A. fumigatus MF4839, 42 hours, 28° C.; read-out: Minimum Inhibitory Concentration
Method: (§1) The compounds are particularly active towards filamentous fungi and yeasts including Candida albicans and Crypt neoformans. The sensitivity of filamentous fungi and yeast was determined using inhibitor dilution assays in microtiter format. The compounds were dissolved in DMSO at 2 mg/ml and serially diluted in 0.1M phosphate buffer, pH 7.0 in the microtiter dish from 100 to 0.006 μg/ml. A standardized spore suspension for testing the filamentous fungi was prepared by inoculating Antibiotic Medium #3 containing 1.5% agar with spores such that 1.5×10^3 colony forming units were added per well. The microtiter wells were filled with 50 μl of buffer containing compound and 50 μl of inoculated medium. The sensitivity of yeasts was determined by inoculating yeast nitrogen base containing 1% dextrose (YNB/G) with aliquots of an overnight yeast culture grown in yeast morphology (YM) media at 35° C. and diluting in YNB/G to yield a final concentration of 1.5-7.5×10^3 colony forming units/well. One hundred fifty μl of inoculated media was added per well. To test the sensitivity of yeast, compound was solubilized in 10 percent aqueous DMSO at 2.56 mg/ml. The compound was diluted serially in YNB/G from 128 to 0.06 μg/ml. The wells were filled with 150 μl of drug containing media. […]

A. flavus MF383 = assay: MIC, inhibitor dilution assay in microtiter format, A. flavus MF383; settings: Aspergillus flavus; A. flavus MF383, 42 hours, 28° C.; read-out: Minimum Inhibitory Concentration
Method: as §1

A. niger MF442 = assay: MIC, inhibitor dilution assay in microtiter format, A. niger MF442; settings: Aspergillus niger; A. niger MF442, 42 hours, 28° C.; read-out: Minimum Inhibitory Concentration
Method: as §1

Fus. oxysporum MF4014 = assay: MIC, inhibitor dilution assay in microtiter format, Fus. oxysporum MF4014; settings: Fusarium oxysporum; Fus. oxysporum MF4014, 42 hours, 28° C.; read-out: Minimum Inhibitory Concentration
Method: as §1

Pen. italicum MF2819 = assay: MIC, inhibitor dilution assay in microtiter format, Pen. italicum MF2819; settings: Penicillium italicum; Pen. italicum MF2819, 42 hours, 28° C.; read-out: Minimum Inhibitory Concentration
Method: as §1

Coch. miyabeanus MF4626 = assay: MIC, inhibitor dilution assay in microtiter format, Coch. miyabeanus MF4626; settings: Bipolaris oryzae, MF4626, 42 h, read-out: Minimum Inhibitory Concentration
Method: as §1

T. Mentagrophytes MF4864 = assay: MIC, inhibitor dilution assay in microtiter format, T. Mentagrophytes MF4864; settings: Trichophyton mentagrophytes; T. Mentagrophytes MF4864, 42 hours, 28° C.; read-out: Minimum Inhibitory Concentration
Method: as §1

C. albicans MY1055 = assay: MIC and MFC, inhibitor dilution assay in microtiter format, C. albicans MY1055; settings: Candida albicans; for MIC: C. albicans MY1055, 24 hours, 28° C., read-out: Minimum Inhibitory Concentration; for MFC: C. albicans MY1055, no growth or no more than three colonies, read-out: Minimum Fungicidal Concentration
Method: (§2) The compounds are particularly active towards filamentous fungi and yeasts including Candida albicans and Crypt neoformans. The sensitivity of filamentous fungi and yeast was determined using inhibitor dilution assays in microtiter format. The compounds were dissolved in DMSO at 2 mg/ml and serially diluted in 0.1M phosphate buffer, pH 7.0 in the microtiter dish from 100 to 0.006 μg/ml. A standardized spore suspension for testing the filamentous fungi was prepared by inoculating Antibiotic Medium #3 containing 1.5% agar with spores such that 1.5×10^3 colony forming units were added per well. The microtiter wells were filled with 50 μl of buffer containing compound and 50 μl of inoculated medium. The sensitivity of yeasts was determined by inoculating yeast nitrogen base containing 1% dextrose (YNB/G) with aliquots of an overnight yeast culture grown in yeast morphology (YM) media at 35° C. and diluting in YNB/G to yield a final concentration of 1.5-7.5×10^3 colony forming units/well. One hundred fifty μl of inoculated media was added per well. To test the sensitivity of yeast, compound was solubilized in 10 percent aqueous DMSO at 2.56 mg/ml. The compound was diluted serially in YNB/G from 128 to 0.06 μg/ml. The wells were filled with 150 μl of drug containing media. The minimum inhibitory concentration (MIC) is defined as the lowest concentration to prevent visible growth after an incubation for 42 hours, 28° C. for the filamentous fungi and 24 hours, 28° C. for the yeasts. […] Representative of the antifungal activity are the minimum inhibitory concentration and minimum fungicidal concentration data shown below: […]

C. tropicalis MY1012 = assay: MIC and MFC, inhibitor dilution assay in microtiter format, C. tropicalis MY1012; settings: Candida tropicalis; for MIC: C. tropicalis MY1012, 24 hours, 28° C., read-out: Minimum Inhibitory Concentration; for MFC: C. tropicalis MY1012, no growth or no more than three colonies, read-out: Minimum Fungicidal Concentration
Method: as §2

C. parapsilosis MY1010 = assay: MIC and MFC, inhibitor dilution assay in microtiter format, C. parapsilosis MY1010; settings: Lodderomyces parapsilosis; for MIC: C. parapsilosis MY1010, 24 hours, 28° C., read-out: Minimum Inhibitory Concentration; for MFC: C. parapsilosis MY1010, no growth or no more than three colonies, read-out: Minimum Fungicidal Concentration
Method: as §2

Crypt. neoformans MY1051 = assay: MIC and MFC, inhibitor dilution assay in microtiter format, Crypt. neoformans MY1051; settings: Cryptococcus neoformans; for MFC: Crypt neoformans MY1051, no growth or no more than three colonies, read-out: Minimum Fungicidal Concentration; for MIC: Crypt. neoformans MY1051, 24 hours, 28° C., read-out: Minimum Inhibitory Concentration
Method: as §2

SMILES | MIC (A. fumigatus MF4839) [µg/mL] | MIC (A. flavus MF383) [µg/mL] | MIC (A. niger MF442) [µg/mL] | MIC (Fus. oxysporum MF4014) [µg/mL] | MIC (Pen. italicum MF2819) [µg/mL] | MIC (Coch. miyabeanus MF4626) [µg/mL] | MIC (T. Mentagrophytes MF4864) [µg/mL] | MIC (C. albicans MY1055) [µg/mL] | MFC (C. albicans MY1055) [µg/mL] | MIC (C. tropicalis MY1012) [µg/mL] | MFC (C. tropicalis MY1012) [µg/mL] | MIC (C. parapsilosis MY1010) [µg/mL] | MFC (C. parapsilosis MY1010) [µg/mL] | MFC (Crypt. neoformans MY1051) [µg/mL] | MIC (Crypt. neoformans MY1051) [µg/mL]
C=C(CCC12OC(C(=O)O)C(O)(C(=O)O)C(C(=O)O)(O1)C(OC(=O)C=CC(C)CC(C)CC)C2O)C(OC(C)=O)C(C)Cc1ccccc1 (centres unmarked) [Compound A] | 6.2 (≈ 8.98 µM) | 6.2 (≈ 8.98 µM) | 25 (≈ 36.2 µM) | > 100 | 6.2 (≈ 8.98 µM) | 1.6 (≈ 2.32 µM) | 4 (≈ 5.79 µM) | 8 (≈ 11.6 µM) | 4 (≈ 5.79 µM) | 4 (≈ 5.79 µM) | 2 (≈ 2.9 µM) | 8 (≈ 11.6 µM) | 2 (≈ 2.9 µM) | 0.5 (≈ 0.724 µM) | 1 (≈ 1.45 µM)
C=C(CCC12OC(C(=O)OC)C(O)(C(=O)OC)C(C(=O)OC)(O1)C(OC(=O)C=CC(C)CC(C)CC)C2O)C(OC(C)=O)C(C)Cc1ccccc1 (centres unmarked) [Compound B] | > 128 | > 128 |  |  |  |  | > 128 | > 128 | > 128 | > 128 | > 128 | > 128 | > 128 | > 128 | > 128
